#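 Each compound was tested at five concentrations against cells in 96-well plates for 48 hours. Here, GI50 denotes the concentration required for 50% inhibition of growth.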 Calls of active or inactive are those of the source. No stated cut-off is given here; in the data, active = GI50 up to about 1.1 µM and inactive = higher.
# Assays:
# Experiment in all cases: NCI anticancer screen, dose series, 48 h
# MCF7 = system: MCF7
# 786-0 = system: 786-0
# Malme-3M = system: Malme-3M
# OVCAR-8 = system: OVCAR-8
# LOX IMVI = system: LOX IMVI
# MDA-N = system: MDA-N
# NCI-H522 = system: NCI-H522
# RXF 393 = system: RXF 393
# K562 = system: K562
# OVCAR-5 = system: OVCAR-5
# SW-620 = system: SW-620
# NCI-H23 = system: NCI-H23
# Hs-578T = system: Hs-578T
# IGROV-1 = system: IGROV-1
# SK-MEL-28 = system: SK-MEL-28
# TK-10 = system: TK-10
# HCC 2998 = system: HCC 2998
# NCI-H226 = system: NCI-H226
# CAKI-1 = system: CAKI-1
# SF-268 = system: SF-268
# A498 = system: A498
# OVCAR-3 = system: OVCAR-3
# T47D = system: T47D
# HOP-62 = system: HOP-62
# OVCAR-4 = system: OVCAR-4
# SNB-19 = system: SNB-19
# HCT-116 = system: HCT-116
# UACC-62 = system: UACC-62
# BT-549 = system: BT-549
# U-251 = system: U-251
# ACHN = system: ACHN
# M14 = system: M14
# MOLT-4 = system: MOLT-4
# MDA-MB-231 = system: MDA-MB-231
# RPMI-8226 = system: RPMI-8226
# A549 = system: A549
# MDA-MB-435 = system: MDA-MB-435
# COLO 205 = system: COLO 205
# SK-OV-3 = system: SK-OV-3
# DU-145 = system: DU-145
# HL-60 = system: HL-60
# HOP-92 = system: HOP-92
# HT-29 = system: HT-29
# EKVX = system: EKVX
# UACC-257 = system: UACC-257
# UO-31 = system: UO-31
# NCI-H460 = system: NCI-H460
# KM12 = system: KM12
# SF-295 = system: SF-295
# PC-3 = system: PC-3
# SN12C = system: SN12C
# NCI/ADR-RES = system: NCI/ADR-RES
# HCT-15 = system: HCT-15
# SK-MEL-2 = system: SK-MEL-2
# SK-MEL-5 = system: SK-MEL-5
# SNB-75 = system: SNB-75
# SF-539 = system: SF-539
# CCRF-CEM = system: CCRF-CEM
smiles,measurement,setting,value
CC(=O)NC(Cc1ccc(O)cc1)C(=O)O (configuration not stated),GI50,MCF7,> 100 µM (inactive)
same,GI50,786-0,> 100 µM (inactive)
same,GI50,Malme-3M,> 100 µM (inactive)
same,GI50,OVCAR-8,> 100 µM (inactive)
same,GI50,LOX IMVI,> 100 µM (inactive)
same,GI50,MDA-N,> 100 µM (inactive)
same,GI50,NCI-H522,> 100 µM (inactive)
same,GI50,RXF 393,> 100 µM (inactive)
same,GI50,K562,> 100 µM (inactive)
same,GI50,OVCAR-5,> 100 µM (inactive)
same,GI50,SW-620,> 100 µM (inactive)
same,GI50,NCI-H23,> 100 µM (inactive)
same,GI50,Hs-578T,> 100 µM (inactive)
same,GI50,IGROV-1,> 100 µM (inactive)
same,GI50,SK-MEL-28,> 100 µM (inactive)
same,GI50,TK-10,> 100 µM (inactive)
same,GI50,HCC 2998,> 100 µM (inactive)
same,GI50,NCI-H226,> 100 µM (inactive)
same,GI50,CAKI-1,> 100 µM (inactive)
same,GI50,SF-268,> 100 µM (inactive)
same,GI50,A498,> 100 µM (inactive)
same,GI50,OVCAR-3,> 100 µM (inactive)
same,GI50,T47D,> 100 µM (inactive)
same,GI50,HOP-62,> 100 µM (inactive)
same,GI50,OVCAR-4,> 100 µM (inactive)
same,GI50,SNB-19,> 100 µM (inactive)
same,GI50,HCT-116,> 100 µM (inactive)
same,GI50,UACC-62,> 100 µM (inactive)
same,GI50,BT-549,> 100 µM (inactive)
same,GI50,U-251,> 100 µM (inactive)
same,GI50,ACHN,> 100 µM (inactive)
same,GI50,M14,> 100 µM (inactive)
same,GI50,MOLT-4,> 100 µM (inactive)
same,GI50,MDA-MB-231,> 100 µM (inactive)
same,GI50,RPMI-8226,> 100 µM (inactive)
same,GI50,A549,> 100 µM (inactive)
same,GI50,MDA-MB-435,> 100 µM (inactive)
same,GI50,COLO 205,> 100 µM (inactive)
same,GI50,SK-OV-3,> 100 µM (inactive)
same,GI50,DU-145,> 100 µM (inactive)
same,GI50,HL-60,> 100 µM (inactive)
same,GI50,HOP-92,> 100 µM (inactive)
same,GI50,HT-29,> 100 µM (inactive)
same,GI50,EKVX,> 100 µM (inactive)
same,GI50,UACC-257,> 100 µM (inactive)
same,GI50,UO-31,> 100 µM (inactive)
same,GI50,NCI-H460,> 100 µM (inactive)
same,GI50,KM12,> 100 µM (inactive)
same,GI50,SF-295,> 100 µM (inactive)
same,GI50,PC-3,> 100 µM (inactive)
same,GI50,SN12C,> 100 µM (inactive)
same,GI50,NCI/ADR-RES,> 100 µM (inactive)
same,GI50,HCT-15,> 100 µM
same,GI50,SK-MEL-2,> 100 µM (inactive)
same,GI50,SK-MEL-5,> 100 µM (inactive)
O=C(O)Cc1ccc([N+](=O)[O-])cc1[N+](=O)[O-],GI50,MCF7,> 100 µM (inactive)
same,GI50,786-0,> 100 µM (inactive)
same,GI50,Malme-3M,> 100 µM (inactive)
same,GI50,OVCAR-8,> 100 µM (inactive)
same,GI50,LOX IMVI,> 100 µM (inactive)
same,GI50,MDA-N,> 100 µM (inactive)
same,GI50,NCI-H522,> 100 µM (inactive)
same,GI50,RXF 393,> 100 µM (inactive)
same,GI50,K562,> 100 µM (inactive)
same,GI50,OVCAR-5,> 100 µM (inactive)
same,GI50,SW-620,> 100 µM (inactive)
same,GI50,NCI-H23,> 100 µM (inactive)
same,GI50,Hs-578T,70.6 µM (inactive)
same,GI50,IGROV-1,> 100 µM (inactive)
same,GI50,SK-MEL-28,> 100 µM (inactive)
same,GI50,TK-10,> 100 µM (inactive)
same,GI50,NCI-H226,> 100 µM (inactive)
same,GI50,CAKI-1,> 100 µM (inactive)
same,GI50,SF-268,> 100 µM (inactive)
same,GI50,A498,> 100 µM (inactive)
same,GI50,SNB-75,> 100 µM (inactive)
same,GI50,SF-539,> 100 µM (inactive)
same,GI50,OVCAR-3,> 100 µM (inactive)
same,GI50,T47D,> 100 µM (inactive)
same,GI50,HOP-62,> 100 µM (inactive)
same,GI50,OVCAR-4,> 100 µM (inactive)
same,GI50,SNB-19,> 100 µM (inactive)
same,GI50,HCT-116,> 100 µM (inactive)
same,GI50,UACC-62,> 100 µM (inactive)
same,GI50,BT-549,> 100 µM (inactive)
same,GI50,U-251,> 100 µM (inactive)
same,GI50,ACHN,> 100 µM (inactive)
same,GI50,CCRF-CEM,> 100 µM (inactive)
same,GI50,M14,> 100 µM (inactive)
same,GI50,MOLT-4,> 100 µM (inactive)
same,GI50,MDA-MB-231,> 100 µM (inactive)
same,GI50,RPMI-8226,> 100 µM (inactive)
same,GI50,A549,> 100 µM (inactive)
same,GI50,MDA-MB-435,> 100 µM (inactive)
same,GI50,COLO 205,> 100 µM (inactive)
same,GI50,SK-OV-3,> 100 µM (inactive)
same,GI50,DU-145,> 100 µM (inactive)
same,GI50,HL-60,> 100 µM (inactive)
same,GI50,HT-29,> 100 µM (inactive)
same,GI50,EKVX,> 100 µM (inactive)
same,GI50,UACC-257,> 100 µM (inactive)
same,GI50,UO-31,> 100 µM (inactive)
same,GI50,NCI-H460,> 100 µM (inactive)
same,GI50,KM12,> 100 µM (inactive)
same,GI50,SF-295,> 100 µM (inactive)
same,GI50,PC-3,> 100 µM (inactive)
same,GI50,SN12C,> 100 µM (inactive)
same,GI50,NCI/ADR-RES,> 100 µM (inactive)
same,GI50,HCT-15,> 100 µM
same,GI50,SK-MEL-2,> 100 µM (inactive)
same,GI50,SK-MEL-5,> 100 µM (inactive)
NC1=CC(C(=O)c2ccncc2)c2nc3ccccc3nc21 (configuration not stated),GI50,MCF7,> 100 µM (inactive)
same,GI50,786-0,> 100 µM (inactive)
same,GI50,Malme-3M,> 100 µM (inactive)
same,GI50,OVCAR-8,63.5 µM (inactive)
same,GI50,LOX IMVI,22.7 µM (inactive)
same,GI50,MDA-N,> 100 µM (inactive)
same,GI50,NCI-H522,> 100 µM (inactive)
same,GI50,RXF 393,> 100 µM (inactive)
same,GI50,OVCAR-5,> 100 µM (inactive)
same,GI50,SW-620,> 100 µM (inactive)
same,GI50,NCI-H23,63 µM (inactive)
same,GI50,Hs-578T,57 µM (inactive)
same,GI50,IGROV-1,46.6 µM (inactive)
same,GI50,SK-MEL-28,> 100 µM (inactive)
same,GI50,TK-10,> 100 µM (inactive)
same,GI50,HCC 2998,> 100 µM (inactive)
same,GI50,NCI-H226,> 100 µM (inactive)
same,GI50,CAKI-1,42.2 µM (inactive)
same,GI50,SF-268,> 100 µM (inactive)
same,GI50,A498,> 100 µM (inactive)
same,GI50,SNB-75,52 µM (inactive)
same,GI50,SF-539,> 100 µM (inactive)
same,GI50,OVCAR-3,> 100 µM (inactive)
same,GI50,T47D,> 100 µM (inactive)
same,GI50,HOP-62,44.2 µM (inactive)
same,GI50,OVCAR-4,> 100 µM (inactive)
same,GI50,SNB-19,> 100 µM (inactive)
same,GI50,HCT-116,> 100 µM (inactive)
same,GI50,UACC-62,> 100 µM (inactive)
same,GI50,BT-549,> 100 µM (inactive)
same,GI50,U-251,> 100 µM (inactive)
same,GI50,ACHN,59.2 µM (inactive)
same,GI50,CCRF-CEM,> 100 µM (inactive)
same,GI50,M14,> 100 µM (inactive)
same,GI50,MOLT-4,> 100 µM (inactive)
same,GI50,MDA-MB-231,> 100 µM (inactive)
same,GI50,RPMI-8226,> 100 µM (inactive)
same,GI50,A549,> 100 µM (inactive)
same,GI50,MDA-MB-435,> 100 µM (inactive)
same,GI50,COLO 205,> 100 µM (inactive)
same,GI50,SK-OV-3,> 100 µM (inactive)
same,GI50,DU-145,> 100 µM (inactive)
same,GI50,HOP-92,> 100 µM (inactive)
same,GI50,HT-29,68.5 µM (inactive)
same,GI50,EKVX,> 100 µM (inactive)
same,GI50,UACC-257,> 100 µM (inactive)
same,GI50,UO-31,> 100 µM (inactive)
same,GI50,NCI-H460,75.5 µM (inactive)
same,GI50,KM12,> 100 µM (inactive)
same,GI50,SF-295,94.4 µM (inactive)
same,GI50,PC-3,> 100 µM (inactive)
same,GI50,SN12C,> 100 µM (inactive)
same,GI50,NCI/ADR-RES,> 100 µM (inactive)
same,GI50,HCT-15,92.7 µM
same,GI50,SK-MEL-2,> 100 µM (inactive)
same,GI50,SK-MEL-5,> 100 µM (inactive)
